Experimental data from patent publication US10206907B2, “Compounds useful for the treatment of degenerative and inflammatory diseases” (GALAPAGOS NV, priority 2008, dated 2019).

Experiments:
[1] = Microsomal stability, human liver microsomes; type: in vitro ADME; details: percentage of compound remaining after 60 minutes, 3 μM compound
Summary of the method: (§1)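 Percent parent remaining after 60 min was determined by LCMS against a time-zero sample quenched before microsome addition. Incubations ran at 37°C with liver microsomes and a G6PDH-based NADPH-regenerating cofactor mix. Quench was MeOH or ACN (1:1).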

[2] = Microsomal stability, rat liver microsomes; type: in vitro ADME; details: percentage of compound remaining after 60 minutes, 3 μM compound
Summary of the method: as §1

[3] = Caco2 permeability (bi-directional); type: in vitro ADME, human; details: human, pH 7.4; for Papp A→B at 1 h, 10 µM: Caco-2, apical to basolateral, read-out: Papp (A2B); for efflux ratio at 1 h, 10 µM: Caco-2, ratio of PappB>A/PappA>B
Method: Bi-directional Caco-2 assays were performed as described below.
2×10^5 cells/well were seeded in plating medium consisting of DMEM+GlutaMAXI+1% NEAA+10% FBS (FetalClone II)+1% Pen/Strep. The medium was changed every 2-3 days.
50 μM Lucifer Yellow (Sigma) was added to the donor buffer in all wells to assess integrity of the cell layers by monitoring Lucifer Yellow permeation. As Lucifer Yellow (LY) cannot freely permeate lipophilic barriers, a high degree of LY transport indicates poor integrity of the cell layer.
After a 1 hour incubation at 37° C. while shaking at an orbital shaker at 150 rpm, 70 μL aliquots were taken from both apical (A) and basal (B) chambers and added to 100 μL1 50:50 acetonitrile:water solution containing analytical internal standard (0.5 μM carbamazepine) in a 96 well plate.
Concentrations of compound in the samples were measured by high performance liquid-chromatography/mass spectroscopy (LC-MS/MS).
The Efflux ratios, as an indication of active efflux from the apical cell surface, were calculated using the ratio of PappB>A/PappA>B.
The following assay acceptance criteria were used:
Lucifer yellow permeability: ≤100 nm/s

[4] = target: Recombinant human JAK1 catalytic domain (Homo sapiens (Human), UniProt P23458); assay: JAK1 inhibition assay; type: biochemical; details: semi-quantitative score
Sequence of Recombinant human JAK1 catalytic domain (P23458 850-1154): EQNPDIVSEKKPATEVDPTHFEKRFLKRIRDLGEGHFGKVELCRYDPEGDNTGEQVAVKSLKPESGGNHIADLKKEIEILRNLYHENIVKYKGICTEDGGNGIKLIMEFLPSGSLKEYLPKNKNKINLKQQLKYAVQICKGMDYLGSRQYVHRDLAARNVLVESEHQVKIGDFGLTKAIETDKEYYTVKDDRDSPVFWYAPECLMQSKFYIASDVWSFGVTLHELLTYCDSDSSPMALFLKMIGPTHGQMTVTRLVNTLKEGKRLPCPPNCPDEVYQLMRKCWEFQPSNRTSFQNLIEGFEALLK
Summary of the method: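 IC50 values come from dose-response series, with each point expressed as percent inhibition of cpm. Vehicle sets full activity and 10 μM staurosporine sets background. Incorporated radioactivity counted by scintillation after washing with 75 mM phosphoric acid.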

MMP13 in SW1353 cells = assay: OSM/IL-1β signaling assay (MMP13 levels in SW1353 cells); type: cell-based; details: Homo sapiens; SW1353 cells, OSM and IL-1β triggered, MMP13 levels 48 hours after triggering; read-out: MMP13 EC50;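 note: secreted MMP13 captured by antibody, activated with APMA and its activity read by fluorescence, inhibition scaled between vehicle-treated triggered wells (0%) and untriggered wells (100%)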
[5] = test system: JAK-STAT signalling in HeLa cells; assay: JAK-STAT signalling assay (OSM-triggered pSTAT1(2)-luciferase reporter in HeLa cells); type: cell-based; details: Homo sapiens; HeLa cells, OSM-triggered pSTAT1(2)-luciferase reporter; read-out: STAT signalling EC50
Summary of the method: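 Read-out is oncostatin M–driven pSTAT1(2)-luciferase activity, corrected by co-transfected LacZ β-galactosidase, in transiently transfected HeLa cells cultured overnight at 37 °C, 10% CO2. Inhibition percentages against positive and negative controls were plotted across doses to derive EC50.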

[6] = target: Recombinant human JAK2 catalytic domain (Homo sapiens (Human), UniProt O60674); assay: JAK2 inhibition assay; type: biochemical; details: semi-quantitative score
Sequence of Recombinant human JAK2 catalytic domain (O60674 808-1132): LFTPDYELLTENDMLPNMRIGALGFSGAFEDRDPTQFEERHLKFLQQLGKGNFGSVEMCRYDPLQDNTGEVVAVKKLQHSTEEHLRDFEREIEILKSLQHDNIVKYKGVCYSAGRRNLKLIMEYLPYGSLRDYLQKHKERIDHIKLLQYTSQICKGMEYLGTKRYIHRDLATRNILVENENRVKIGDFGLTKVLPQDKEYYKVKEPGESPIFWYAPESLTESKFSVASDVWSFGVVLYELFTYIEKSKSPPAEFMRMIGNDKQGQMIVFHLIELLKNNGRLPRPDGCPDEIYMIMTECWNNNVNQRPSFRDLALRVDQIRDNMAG
Summary of the method: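 Activity was taken as vehicle cpm minus cpm with 10 μM staurosporine, and inhibition was expressed on that scale. Incubation was 90 min at 30 °C, followed by acid quench, phosphoric acid washes and Microscint counting. Compounds were tested as dose series to obtain IC50.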

Compound	Microsomal Stability Human (%) [1]	Microsomal Stability Rat (%) [2]	Papp A→B at 1 h, 10 µM [3] [×10⁻⁶ cm/s]	efflux ratio at 1 h, 10 µM [3]	IC50 [4] [nM]	EC50 (MMP13 in SW1353 cells) [nM]	EC50 [5] [nM]	IC50 [6] [nM]
O=C(NCc1cccnc1)c1ccc(-c2cccc3nc(NC(=O)C4CC4)nn23)cc1 [Compound 42, 4-(2-(cyclopropanecarboxamido)-[1,2,4]triazolo[1,5-a]pyridin-5-yl)-N-(pyridin-3-ylmethyl)benzamide]	*** (*** 51-75)	**** (**** 76-100)	0.45	68.8	101 to 500			
O=C(NCCc1cnn(-c2ccccc2)c1)c1ccc(-c2cccc3nc(NC(=O)C4CC4)nn23)cc1 [Compound 106, 4-(2-(cyclopropanecarboxamido)-[1,2,4]triazolo[1,5-a]pyridin-5-yl)-N-(2-(1-phenyl-1H-pyrazol-4-yl)ethyl)benzamide]	* (* 0-25)	* (* 0-25)	4.23	7.38	< 100	1 to 500	101 to 500	
O=C(Nc1nc2cccc(-c3ccc4c(ccn4C(=O)CCc4ccccc4)c3)n2n1)C1CC1 [Compound 179, Cyclopropanecarboxylic Acid {5-[1-(3-phenyl-propionyl)-1H-indol-5-yl]-[1,2,4]triazolo[1,5-a]pyridin-2-yl}-amide]	* (* 0-25)	* (* 0-25)	0.5	1	< 100		> 1000	
COc1c(F)ccc(NCc2ccc(-c3cccc4nc(NC(=O)C5CC5)nn34)cc2)c1F [Compound 245, Cyclopropanecarboxylic acid (5-{4-[(2,4-difluoro-3-methoxy-phenylamino)-methyl]-phenyl}-[1,2,4]triazolo[1,5-a]pyridin-2-yl)-amide]	* (* 0-25)	* (* 0-25)			< 100	> 1000	101 to 500	< 100
O=C(Nc1nc2cccc(-c3ccc(CNc4c(F)cccc4F)cc3)n2n1)C1CC1 [Compound 246, Cyclopropanecarboxylic acid (5-{4-[(2,6-difluoro-phenylamino)-methyl]-phenyl}-[1,2,4]triazolo[1,5-a]pyridin-2-yl)-amide]	* (* 0-25)	* (* 0-25)			< 100	501 to 1000	101 to 500	< 100
O=C(Nc1nc2cccc(-c3ccc(CNc4ncc(F)cc4F)cc3)n2n1)C1CC1 [Compound 257, Cyclopropanecarboxylic acid (5-{4-[(3,5-difluoro-pyridin-2-ylamino)-methyl]-phenyl}-[1,2,4]triazolo[1,5-a]pyridin-2-yl)-amide]			24	1.1				< 100
CC(=O)N(Cc1ccc(C#N)nc1)c1ccc(-c2cccc3nc(NC(=O)C4CC4)nn23)cc1 [Compound 297, Cyclopropanecarboxylic acid (5-{4-[acetyl-(6-cyano-pyridin-3-ylmethyl)-amino]-phenyl}-[1,2,4]triazolo[1,5-a]pyridin-2-yl)-amide]		**** (**** 76-100)	1.05	70.2	< 100	> 1000	> 1000	< 100
N#CCc1ccc(OCc2ccc(-c3cccc4nc(NC(=O)C5CC5)nn34)cc2)cc1 [Compound 301, Cyclopropanecarboxylic acid {5-[4-(4-cyanomethyl-phenoxymethyl)-phenyl]-[1,2,4]triazolo[1,5-a]pyridin-2-yl}-amide]		* (* 0-25)	13.9	1.31	< 100	> 1000	101 to 500	< 100

Other lines, results leading:

Microsomal Stability Human (%) [1]	Microsomal Stability Rat (%) [2]	Papp A→B at 1 h, 10 µM [3] [×10⁻⁶ cm/s]	efflux ratio at 1 h, 10 µM [3]	IC50 [4] [nM]	EC50 (MMP13 in SW1353 cells) [nM]	EC50 [5] [nM]	IC50 [6] [nM]	Compound
** (** 26-50)	** (** 26-50)	6.9	2.5	< 100	> 1000	> 1000		O=C(Nc1nc2cccc(-c3ccc(C(=O)N4CCCC(C(F)(F)F)C4)cc3)n2n1)C1CC1 (stereo not shown) [Compound 164, N-(5-(4-(3-(trifluoromethyl)piperidine-1-carbonyl)phenyl)-[1,2,4]triazol[1,5-a]pyridin-2-yl)cyclopropanecarboxamide]
**** (**** 76-100)	*** (*** 51-75)	11			> 1000	> 1000		O=C(Nc1nc2cccc(-c3ccc(C(=O)N4CCC(F)(F)CC4)cc3)n2n1)C1CC1 [Compound 168]
* (* 0-25)	* (* 0-25)	6.95	2	< 100	1 to 500	501 to 1000		CC1(C)CCCN(C(=O)c2ccc(-c3cccc4nc(NC(=O)C5CC5)nn34)cc2)C1 [Compound 175, N-(5-(4-(3,3-dimethylpiperidine-1-carbonyl)phenyl)-[1,2,4]triazolo[1,5-a]pyridin-2-yl)cyclopropanecarboxamide]
* (* 0-25)	**** (**** 76-100)			< 100	> 1000	501 to 1000	101 to 500	O=C(Nc1nc2cccc(-c3ccc(CC(=O)N4CCCCC4)cc3)n2n1)C1CC1 [Compound 266, Cyclopropanecarboxylic acid {5-[4-(2-oxo-2-piperidin-1-yl-ethyl)-phenyl]-[1,2,4]triazolo[1,5-a]pyridin-2-yl}-amide]
**** (**** 76-100)	**** (**** 76-100)			< 100	> 1000	> 1000	101 to 500	O=C(Nc1nc2cccc(-c3ccc(CC(=O)N4CCS(=O)(=O)CC4)cc3)n2n1)C1CC1 [Compound 267, Cyclopropanecarboxylic acid (5-{4-[2-(1,1-dioxo-thiomorpholin-4-yl)-2-oxo-ethyl]-phenyl}-[1,2,4]triazolo[1,5-a]pyridin-2-yl)-amide]
**** (**** 76-100)	**** (**** 76-100)			< 100	> 1000	> 1000	< 100	CN(C(=O)c1ccc(-c2cccc3nc(NC(=O)C4CC4)nn23)cc1)C1CCS(=O)(=O)C1 (stereo not shown) [Compound 273, 4-[2-(Cyclopropanecarbonyl-amino)-[1,2,4]triazolo[1,5-a]pyridin-5-yl]-N-(1,1-dioxo-tetrahydrothiophen-3-yl)-N-methyl-benzamide]
	**** (**** 76-100)	0.3	69.7	< 100	> 1000	> 1000	< 100	O=C(Nc1nc2cccc(-c3ccc(CNC4CCS(=O)(=O)C4)cc3)n2n1)C1CC1 (stereo not shown) [Compound 304, Cyclopropanecarboxylic acid (5-{4-[(1,1-dioxo-tetrahydro-thiophen-3-ylamino)-methyl]-phenyl}-[1,2,4]triazolo[1,5-a]pyridin-2-yl)-amide]
